# According to ChEMBL document CHEMBL1201862, “PubChem BioAssay data set” (2004):
#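 Values below derive from 48-hour exposures of cells grown in 96-well plates, with endpoints linearly interpolated between the two concentrations bracketing the appropriate inhibition level. GI50: concentration for 50% inhibition of growth.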 The source made the active and inactive calls. Rule as the data show it: active = GI50 up to about 1.1 µM and inactive = higher.
# Experiments:
# Experiment in all cases: DTP human tumour cell line panel, 48 h
# 786-0 = tested on: 786-0
# A498 = tested on: A498
# A549 = tested on: A549
# ACHN = tested on: ACHN
# BT-549 = tested on: BT-549
# CAKI-1 = tested on: CAKI-1
# CCRF-CEM = tested on: CCRF-CEM
# COLO 205 = tested on: COLO 205
# DU-145 = tested on: DU-145
# EKVX = tested on: EKVX
# HCT-116 = tested on: HCT-116
# HCT-15 = tested on: HCT-15
# HL-60 = tested on: HL-60
# HOP-92 = tested on: HOP-92
# HT-29 = tested on: HT-29
# Hs-578T = tested on: Hs-578T
# IGROV-1 = tested on: IGROV-1
# K562 = tested on: K562
# KM12 = tested on: KM12
# LOX IMVI = tested on: LOX IMVI
# M14 = tested on: M14
# MCF7 = tested on: MCF7
# MDA-MB-231 = tested on: MDA-MB-231
# MDA-MB-435 = tested on: MDA-MB-435
# MDA-N = tested on: MDA-N
# MOLT-4 = tested on: MOLT-4
# Malme-3M = tested on: Malme-3M
# NCI-H23 = tested on: NCI-H23
# NCI-H460 = tested on: NCI-H460
# NCI-H522 = tested on: NCI-H522
# NCI/ADR-RES = tested on: NCI/ADR-RES
# OVCAR-3 = tested on: OVCAR-3
# OVCAR-4 = tested on: OVCAR-4
# OVCAR-5 = tested on: OVCAR-5
# OVCAR-8 = tested on: OVCAR-8
# PC-3 = tested on: PC-3
# RPMI-8226 = tested on: RPMI-8226
# RXF 393 = tested on: RXF 393
# SF-268 = tested on: SF-268
# SF-295 = tested on: SF-295
# SF-539 = tested on: SF-539
# SK-MEL-28 = tested on: SK-MEL-28
# SK-MEL-2 = tested on: SK-MEL-2
# SK-MEL-5 = tested on: SK-MEL-5
# SK-OV-3 = tested on: SK-OV-3
# SN12C = tested on: SN12C
# SNB-19 = tested on: SNB-19
# SNB-75 = tested on: SNB-75
# SR = tested on: SR
# SW-620 = tested on: SW-620
# T47D = tested on: T47D
# TK-10 = tested on: TK-10
# U-251 = tested on: U-251
# UACC-257 = tested on: UACC-257
# UACC-62 = tested on: UACC-62
# UO-31 = tested on: UO-31
# HCC 2998 = tested on: HCC 2998
# HOP-62 = tested on: HOP-62
# NCI-H226 = tested on: NCI-H226
smiles,measurement,setting,value
Cc1nccn1S(=O)(=O)c1ccc(Br)cc1Br,GI50,786-0,45.7 µM (inactive)
same,GI50,A498,35.9 µM (inactive)
same,GI50,A549,25.9 µM (inactive)
same,GI50,ACHN,54.1 µM (inactive)
same,GI50,BT-549,56.2 µM (inactive)
same,GI50,CAKI-1,30 µM (inactive)
same,GI50,CCRF-CEM,26.5 µM (inactive)
same,GI50,COLO 205,18.6 µM (inactive)
same,GI50,DU-145,42.9 µM (inactive)
same,GI50,EKVX,26.9 µM (inactive)
same,GI50,HCT-116,31.6 µM (inactive)
same,GI50,HCT-15,28.4 µM
same,GI50,HL-60,19.1 µM (inactive)
same,GI50,HOP-92,26.7 µM (inactive)
same,GI50,HT-29,29.1 µM (inactive)
same,GI50,Hs-578T,41.1 µM (inactive)
same,GI50,IGROV-1,41.8 µM (inactive)
same,GI50,K562,29.1 µM (inactive)
same,GI50,KM12,27.7 µM (inactive)
same,GI50,LOX IMVI,40.9 µM (inactive)
same,GI50,M14,16.9 µM (inactive)
same,GI50,MCF7,37.5 µM (inactive)
same,GI50,MDA-MB-231,19.1 µM (inactive)
same,GI50,MDA-MB-435,19.5 µM (inactive)
same,GI50,MDA-N,20.7 µM (inactive)
same,GI50,MOLT-4,29 µM (inactive)
same,GI50,Malme-3M,50.8 µM (inactive)
same,GI50,NCI-H23,36.1 µM (inactive)
same,GI50,NCI-H460,38.4 µM (inactive)
same,GI50,NCI-H522,25.7 µM (inactive)
same,GI50,NCI/ADR-RES,28.5 µM (inactive)
same,GI50,OVCAR-3,22.7 µM (inactive)
same,GI50,OVCAR-4,29.5 µM (inactive)
same,GI50,OVCAR-5,35.1 µM (inactive)
same,GI50,OVCAR-8,44.4 µM (inactive)
same,GI50,PC-3,33 µM (inactive)
same,GI50,RPMI-8226,19.5 µM (inactive)
same,GI50,RXF 393,23 µM (inactive)
same,GI50,SF-268,37.2 µM (inactive)
same,GI50,SF-295,27.7 µM (inactive)
same,GI50,SF-539,22.6 µM (inactive)
same,GI50,SK-MEL-28,48.9 µM (inactive)
same,GI50,SK-MEL-2,22.1 µM (inactive)
same,GI50,SK-MEL-5,19.9 µM (inactive)
same,GI50,SK-OV-3,41.8 µM (inactive)
same,GI50,SN12C,29.7 µM (inactive)
same,GI50,SNB-19,25.9 µM (inactive)
same,GI50,SNB-75,12.5 µM (inactive)
same,GI50,SR,24.7 µM (inactive)
same,GI50,SW-620,28.5 µM (inactive)
same,GI50,T47D,22.6 µM (inactive)
same,GI50,TK-10,38.6 µM (inactive)
same,GI50,U-251,44.7 µM (inactive)
same,GI50,UACC-257,34.9 µM (inactive)
same,GI50,UACC-62,33.6 µM (inactive)
same,GI50,UO-31,22.3 µM (inactive)
CCOC(=O)c1ccc(Nc2nc3ccccc3n3cccc23)cc1,GI50,786-0,26.8 µM (inactive)
same,GI50,A498,46 µM (inactive)
same,GI50,A549,86.5 µM (inactive)
same,GI50,ACHN,72.8 µM (inactive)
same,GI50,BT-549,> 100 µM (inactive)
same,GI50,CAKI-1,> 100 µM (inactive)
same,GI50,CCRF-CEM,0.0217 µM (active)
same,GI50,COLO 205,> 100 µM (inactive)
same,GI50,DU-145,86.1 µM (inactive)
same,GI50,EKVX,31.3 µM (inactive)
same,GI50,HCC 2998,35 µM (inactive)
same,GI50,HCT-116,> 100 µM (inactive)
same,GI50,HCT-15,21.8 µM
same,GI50,HL-60,< 0.01 µM (active)
same,GI50,HOP-62,25.7 µM (inactive)
same,GI50,HOP-92,52.7 µM (inactive)
same,GI50,HT-29,36.7 µM (inactive)
same,GI50,Hs-578T,42.9 µM (inactive)
same,GI50,IGROV-1,46.6 µM (inactive)
same,GI50,K562,29.8 µM (inactive)
same,GI50,KM12,28.1 µM (inactive)
same,GI50,LOX IMVI,50.2 µM (inactive)
same,GI50,M14,> 100 µM (inactive)
same,GI50,MCF7,32 µM (inactive)
same,GI50,MDA-MB-231,36 µM (inactive)
same,GI50,MDA-MB-435,3.27 µM (inactive)
same,GI50,MDA-N,3.15 µM (inactive)
same,GI50,MOLT-4,> 100 µM (inactive)
same,GI50,Malme-3M,> 100 µM (inactive)
same,GI50,NCI-H23,63.8 µM (inactive)
same,GI50,NCI-H460,84.7 µM (inactive)
same,GI50,NCI-H522,88.1 µM (inactive)
same,GI50,NCI/ADR-RES,38.1 µM (inactive)
same,GI50,OVCAR-3,70 µM (inactive)
same,GI50,OVCAR-5,> 100 µM (inactive)
same,GI50,OVCAR-8,47.8 µM (inactive)
same,GI50,PC-3,36.6 µM (inactive)
same,GI50,RPMI-8226,> 100 µM (inactive)
same,GI50,RXF 393,14.3 µM (inactive)
same,GI50,SF-268,35.7 µM (inactive)
same,GI50,SF-295,27.1 µM (inactive)
same,GI50,SF-539,35.2 µM (inactive)
same,GI50,SK-MEL-28,88.1 µM (inactive)
same,GI50,SK-MEL-2,34.6 µM (inactive)
same,GI50,SK-MEL-5,66.8 µM (inactive)
same,GI50,SK-OV-3,27.4 µM (inactive)
same,GI50,SN12C,12.8 µM (inactive)
same,GI50,SNB-19,52.5 µM (inactive)
same,GI50,SNB-75,22.2 µM (inactive)
same,GI50,SR,8.97 µM (inactive)
same,GI50,SW-620,9.38 µM (inactive)
same,GI50,T47D,9.57 µM (inactive)
same,GI50,TK-10,34.8 µM (inactive)
same,GI50,U-251,28.4 µM (inactive)
same,GI50,UACC-257,> 100 µM (inactive)
same,GI50,UACC-62,40.8 µM (inactive)
same,GI50,UO-31,> 100 µM (inactive)
C/C(=N\Nc1nc2ccccc2o1)c1ncccn1,GI50,786-0,< 0.0252 µM (active)
same,GI50,A498,0.332 µM (active)
same,GI50,A549,0.0908 µM (active)
same,GI50,ACHN,< 0.0165 µM (active)
same,GI50,BT-549,0.643 µM (active)
same,GI50,CAKI-1,< 0.01 µM (active)
same,GI50,CCRF-CEM,< 0.01 µM (active)
same,GI50,COLO 205,< 0.01 µM (active)
same,GI50,DU-145,0.0811 µM (active)
same,GI50,EKVX,< 0.0172 µM (active)
same,GI50,HCC 2998,0.141 µM (active)
same,GI50,HCT-116,< 0.0175 µM (active)
same,GI50,HCT-15,< 0.0211 µM
same,GI50,HL-60,< 0.01 µM (active)
same,GI50,HOP-62,0.0908 µM (active)
same,GI50,HOP-92,0.145 µM (active)
same,GI50,HT-29,< 0.01 µM (active)
same,GI50,Hs-578T,0.984 µM (active)
same,GI50,IGROV-1,0.0184 µM (active)
same,GI50,K562,0.012 µM (active)
same,GI50,KM12,0.817 µM (active)
same,GI50,LOX IMVI,0.0115 µM (active)
same,GI50,M14,< 0.0192 µM (active)
same,GI50,MCF7,0.0121 µM (active)
same,GI50,MDA-MB-231,< 0.0208 µM (active)
same,GI50,MDA-MB-435,0.0573 µM (active)
same,GI50,MDA-N,0.3 µM (active)
same,GI50,MOLT-4,< 0.01 µM (active)
same,GI50,Malme-3M,< 0.01 µM (active)
same,GI50,NCI-H226,0.118 µM (active)
same,GI50,NCI-H23,0.123 µM (active)
same,GI50,NCI-H460,< 0.0234 µM (active)
same,GI50,NCI-H522,< 0.01 µM (active)
same,GI50,NCI/ADR-RES,< 0.0163 µM (active)
same,GI50,OVCAR-3,0.0136 µM (active)
same,GI50,OVCAR-4,< 0.01 µM (active)
same,GI50,OVCAR-5,< 0.0267 µM (active)
same,GI50,OVCAR-8,< 0.01 µM (active)
same,GI50,PC-3,< 0.0273 µM (active)
same,GI50,RPMI-8226,0.0137 µM (active)
same,GI50,SF-268,0.32 µM (active)
same,GI50,SF-295,0.0824 µM (active)
same,GI50,SF-539,0.043 µM (active)
same,GI50,SK-MEL-28,0.0405 µM (active)
same,GI50,SK-MEL-2,0.175 µM (active)
same,GI50,SK-MEL-5,0.0574 µM (active)
same,GI50,SK-OV-3,0.0312 µM (active)
same,GI50,SN12C,< 0.0158 µM (active)
same,GI50,SNB-19,0.163 µM (active)
same,GI50,SNB-75,1.85 µM (inactive)
same,GI50,SR,< 0.02 µM (active)
same,GI50,SW-620,< 0.01 µM (active)
same,GI50,T47D,< 0.01 µM (active)
same,GI50,TK-10,0.0675 µM (active)
same,GI50,U-251,0.0213 µM (active)
same,GI50,UACC-257,< 0.022 µM (active)
same,GI50,UACC-62,0.0646 µM (active)
same,GI50,UO-31,< 0.0313 µM (active)
